In patent US11000033B2, “Ketone or oxime compound, and herbicide” (NISSAN CHEMICAL CORPORATION, priority 2014, dated 2021):

How the values were obtained:
Assay type in all cases: in vivo
Avena fatua = assay: Test Example 5: herbicidal effect by foliage application, plastic box (symbol I); conditions: 320 g/ha, 3 weeks after application
Procedure, shortened: (§1)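 Visual herbicidal score, taken three weeks post-application, of seedlings sprayed on the foliage with water-diluted emulsion at a predetermined amount; plants were 14 days old, greenhouse-raised at 25° C. to 30° C.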

Amaranthus retroflexus = assay: Test Example 4: herbicidal effect by soil treatment (symbol N); conditions: application herbicide amount 320 g/ha
Procedure, shortened: (§2)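 Seeds were sown in sterilized diluvial soil, covered with about 1.5 cm of soil, and the soil surface was sprayed with a water-diluted emulsion of the compound at a predetermined rate. Plants grew in a greenhouse at 25° C. to 30° C.; effects were scored visually 3 weeks after application.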

[1] = tested on: Echinochloa crus-galli var. crus-galli; assay: Test Example 4: herbicidal effect by soil treatment (symbol H); conditions: application herbicide amount 320 g/ha
Procedure, shortened: as §2

Apera spica-venti = assay: Test Example 5: herbicidal effect by foliage application, plastic box (symbol L); conditions: 320 g/ha, 3 weeks after application
Procedure, shortened: as §1

corn [2] = assay: Test Example 5: effect on crop by foliage application, plastic box (symbol c); conditions: 320 g/ha, 3 weeks after application
Procedure, shortened: (§3)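 Seeds were sown in spots in sterilized diluvial soil held in a plastic box 21 cm × 13 cm × 7 cm deep, covered with about 1.5 cm of soil, and grown in a greenhouse at 25° C. to 30° C.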

Cyperus difformis = assay: Test Example 3: herbicidal effect by foliage application, Wagner pot (symbol E); conditions: application herbicide amount 320 g/ha
Procedure, shortened: (§4)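 Weeds and rice were sown in alluvial soil under 0.1–0.5 cm of standing water and grown for 14 days in a 25–30 °C greenhouse. An emulsion of the compound, diluted in water to a set dose, was sprayed evenly onto the foliage. Effect was scored against fixed criteria 3 weeks after treatment.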

Digitaria ciliaris = assay: Test Example 4: herbicidal effect by soil treatment (symbol F); conditions: application herbicide amount 320 g/ha
Procedure, shortened: as §2

rapeseed = assay: Test Example 5: effect on crop by foliage application, plastic box (symbol g); conditions: 320 g/ha, 3 weeks after application
Procedure, shortened: as §3

Stellaria media = assay: Test Example 5: herbicidal effect by foliage application, plastic box (symbol P); conditions: 320 g/ha, 3 weeks after application
Procedure, shortened: as §1

soybean = assay: Test Example 4: effect on crop by soil treatment (symbol d); conditions: application herbicide amount 320 g/ha
Procedure, shortened: (§5)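 Greenhouse culture at 25° C. to 30° C. followed sowing of seed in spots on sterilized diluvial soil with a soil cover close to 1.5 cm thick.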

Abutilon theophrasti [3] = assay: Test Example 5: herbicidal effect by foliage application, plastic box (symbol M); conditions: 320 g/ha, 3 weeks after application
Procedure, shortened: as §1

Leptochloa chinensis = assay: Test Example 3: herbicidal effect by foliage application, Wagner pot (symbol D); conditions: application herbicide amount 320 g/ha
Procedure, shortened: as §4

Abutilon theophrasti [4] = assay: Test Example 4: herbicidal effect by soil treatment (symbol M); conditions: application herbicide amount 320 g/ha
Procedure, shortened: as §2

Lolium multiflorum Lam. [5] = assay: Test Example 5: herbicidal effect by foliage application, plastic box (symbol K); conditions: 320 g/ha, 3 weeks after application
Procedure, shortened: as §1

beet = assay: Test Example 5: effect on crop by foliage application, plastic box (symbol f); conditions: 320 g/ha, 3 weeks after application
Procedure, shortened: as §3

Chenopodium album = assay: Test Example 5: herbicidal effect by foliage application, plastic box (symbol O); conditions: 320 g/ha, 3 weeks after application
Procedure, shortened: as §1

Setaria viridis = assay: Test Example 5: herbicidal effect by foliage application, plastic box (symbol G); conditions: 320 g/ha, 3 weeks after application
Procedure, shortened: as §1

corn [6] = assay: Test Example 4: effect on crop by soil treatment (symbol c); conditions: application herbicide amount 320 g/ha
Procedure, shortened: as §5

wheat = assay: Test Example 5: effect on crop by foliage application, plastic box (symbol e); conditions: 320 g/ha, 3 weeks after application
Procedure, shortened: as §3

Lolium multiflorum Lam. [7] = assay: Test Example 4: herbicidal effect by soil treatment (symbol K); conditions: application herbicide amount 320 g/ha
Procedure, shortened: as §2

[8] = tested on: directly sowed rice plant; assay: Test Example 3: effect on crop by foliage application, Wagner pot (symbol b); conditions: application herbicide amount 320 g/ha
Procedure, shortened: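 Wagner pot (1/10000 are), alluvial soil, submerged 0.1–0.5 cm; sown E. crus-galli var. crus-galli, L. chinensis, C. difformis, rice; greenhouse 25–30 °C.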

SMILES | I: Avena fatua, herbicidal effect grade (Avena fatua) | N: Amaranthus retroflexus, herbicidal effect grade (Amaranthus retroflexus) | H: Echinochloa crus-galli var. crus-galli, herbicidal effect grade [1] | L: Apera spica-venti, herbicidal effect grade (Apera spica-venti) | c: corn, effect on crop grade (corn [2]) | herbicidal effect on E, grade 0-5 (Cyperus difformis) | F: Digitaria ciliaris, herbicidal effect grade (Digitaria ciliaris) | g: rapeseed, effect on crop grade (rapeseed) | P: Stellaria media, herbicidal effect grade (Stellaria media) | d: soybean, effect on crop grade (soybean) | M: Abutilon theophrasti, herbicidal effect grade (Abutilon theophrasti [3]) | herbicidal effect on D (Leptochloa chinensis), grade 0-5 (Leptochloa chinensis) | M: Abutilon theophrasti, herbicidal effect grade (Abutilon theophrasti [4]) | K: Lolium multiflorum Lam., herbicidal effect grade (Lolium multiflorum Lam. [5]) | f: beet, effect on crop grade (beet) | O: Chenopodium album, herbicidal effect grade (Chenopodium album) | G: Setaria viridis, herbicidal effect grade (Setaria viridis) | c: corn, effect on crop grade (corn [6]) | e: wheat, effect on crop grade (wheat) | K: Lolium multiflorum Lam., herbicidal effect grade (Lolium multiflorum Lam. [7]) | other results
CCOC(=O)C(C(=O)c1ccccc1)C1CC(O)=C(c2c(C)cc(C)cc2C)C1=O (stereo not drawn) [2-008] | 0 (Herbicidal ratio of 5% or lower (almost no effect)) | 0 (Herbicidal ratio of 5% or lower (almost no effect)) | 0 (Herbicidal ratio of 5% or lower (almost no effect)) | 0 (Herbicidal ratio of 5% or lower (almost no effect)) | 1 (Herbicidal ratio of 5% or higher and lower than 20%) | 0 (Herbicidal ratio of 5% or lower (almost no effect)) | 0 (Herbicidal ratio of 5% or lower (almost no effect)) | 3 (Herbicidal ratio of 40% or higher and lower than 70%) | 0 (Herbicidal ratio of 5% or lower (almost no effect)) | 0 (Herbicidal ratio of 5% or lower (almost no effect)) | 0 (Herbicidal ratio of 5% or lower (almost no effect)) | 0 (Herbicidal ratio of 5% or lower (almost no effect)) | 0 (Herbicidal ratio of 5% or lower (almost no effect)) | 4 (Herbicidal ratio of 70% or higher and lower than 90%) | 0 (Herbicidal ratio of 5% or lower (almost no effect)) | 0 (Herbicidal ratio of 5% or lower (almost no effect)) | 3 (Herbicidal ratio of 40% or higher and lower than 70%) | 0 (Herbicidal ratio of 5% or lower (almost no effect)) | 0 (Herbicidal ratio of 5% or lower (almost no effect)) | 3 (Herbicidal ratio of 40% or higher and lower than 70%) | effect on crop b (directly sowed rice plant), grade 0-5 [8]: 0 (Herbicidal ratio of 5% or lower (almost no effect))
CCOC(=O)C(C(=O)C(C)C)C1CC(O)=C(c2c(C)cc(C)cc2C)C1=O (stereo not drawn) [2-009] | 0 (Herbicidal ratio of 5% or lower (almost no effect)) | 0 (Herbicidal ratio of 5% or lower (almost no effect)) | 1 (Herbicidal ratio of 5% or higher and lower than 20%) | 0 (Herbicidal ratio of 5% or lower (almost no effect)) | 0 (Herbicidal ratio of 5% or lower (almost no effect)) | 0 (Herbicidal ratio of 5% or lower (almost no effect)) | 2 (Herbicidal ratio of 20% or higher and lower than 40%) | 0 (Herbicidal ratio of 5% or lower (almost no effect)) | 0 (Herbicidal ratio of 5% or lower (almost no effect)) | 0 (Herbicidal ratio of 5% or lower (almost no effect)) | 0 (Herbicidal ratio of 5% or lower (almost no effect)) | 0 (Herbicidal ratio of 5% or lower (almost no effect)) | 0 (Herbicidal ratio of 5% or lower (almost no effect)) | 1 (Herbicidal ratio of 5% or higher and lower than 20%) | 0 (Herbicidal ratio of 5% or lower (almost no effect)) | 0 (Herbicidal ratio of 5% or lower (almost no effect)) | 0 (Herbicidal ratio of 5% or lower (almost no effect)) | 0 (Herbicidal ratio of 5% or lower (almost no effect)) | 0 (Herbicidal ratio of 5% or lower (almost no effect)) | 0 (Herbicidal ratio of 5% or lower (almost no effect)) | effect on crop b (directly sowed rice plant), grade 0-5 [8]: 1 (Herbicidal ratio of 5% or higher and lower than 20%)
